Measured values reported in US10802012B2, “Optical cytometry to determine cell mass changes in response to a biologically active agent” (The Regents of the University of California, priority 2009, dated 2020).

Tests used:
[1] = tested on: fibroblasts; conditions: low doses (0.1-1 μM); cited from earlier work
[2] = tested on: fibroblasts; conditions: low doses (0.1-1 μM); cited from earlier work; remark: listed apart in the source
[3] = tested on: NIH3T3 cells; assay: Mechanical imaging interferometry (MII) viscoelastic measurement of cells before and after cytochalasin B; assay type: cell-based, mouse
Description: The population measurements of the NIH 3T3 fibroblasts and the HEK 293T […] were conducted over several consecutive days. Both cell types were cultured at the same time on a series of poly-L-lysine coated 0.20×10 mm round glass coverslips, in 1×DMEM with 10% fetal bovine serum in a laboratory incubator under standard cell culture conditions. Preceding measurement, a single round coverslip containing cells would be removed from the culture dish and quickly placed in the microscope test chamber. Microreflectors would be added to media from the original culture dish, which would then be pipetted slowly onto the cells and the sample chamber sealed. Cells were allowed to equilibrate in the test chamber for 30 minutes before measurement. The average radius of the measured microreflectors was 3.79 μm, and the average applied force was 190 pN. The average cell height was 8.1 μm and the average maximum indentation depth per cell was 660 nm.
The three constants for a viscoelastic solid were determined for each measurement by fitting the time-dependent force-displacement curves of the microreflectors to the following equation (see, e.g. Cheng et al., (2005) Mechanics of Materials 37, 213-226):
[formula] Our measurements assumed Poisson's ratio for the cell, v=0.5. Curves were fitted using the Levenberg-Marquardt non-linear least squares procedure (Origin Labs). The z-statistic was used to compare the log-transformed sample means and determine p values. The Bartlett test was used to confirm homogeneity of the compared sample variances.
To remain within the semi-infinite layer assumptions of this model, we present fits only for observations where the minimum cell thickness at the location of the microreflector was 3 μm or greater. A majority of the measurements fit the model elastic constants E1 and E2 well, having a relative standard error of fit <25%. There was larger uncertainty in the viscosity factor, η, with only 30% of the fits having a relative standard error <25%.
(§1) Cells were prepared for measurement as described above. A continuous infusion of fresh media into the sample chamber, warmed to 37 C and pre-saturated with 5%CO2, was maintained at all times. The rate of infusion was 5 μL/min, equivalent to exchanging the entire volume of the test chamber in 20 minutes. Cells were equilibrated under flow for 45 minutes before measurement. Flow was halted during each measurement cycle, which lasted approximately 200 seconds. The first, a media-only measurement was conducted at 1 hour, immediately followed by introduction of cytochalasin B into the infusing media. Initially, the cytochalasin B was dissolved in DMSO and diluted in DMEM to produce a stock concentration 1000× the working concentration (1 μM or 10 μM). At the appropriate time, the stock solution was introduced into the infusion media reservoir to produce the desired final concentration.

[4] = tested on: fibroblasts; conditions: low doses (0.1-1 μM); cited from earlier work; remark: listed apart in the source
[5] = tested on: NIH3T3 cells; assay: Cell morphology in intensity images during cytochalasin treatment; assay type: cell-based, mouse; conditions: 1 μM, up to 45 minutes
Description: as §1

[6] = NIH3T3 cells, 1 μM, matched individual cell basis
[7] = NIH3T3 cells, FIG. 6B, normal force applied for 100 seconds, before vs after treatment

For `C=C1[C@@H](C)[C@H]2[C@H](Cc3ccccc3)NC(=O)[C@]23OC(=O)/C=C/[C@H](O)CCC[C@@H](C)C/C=C/[C@H]3[C@@H]1O` [cytochalasin B], which “change in Young's modulus by AFM indentation” value [1] is on record?
Its value is “minimal, if any, measurable change in Young's modulus”.

And the “changes in the morphology of fibroblasts” value [2]?
The value was “does not produce large changes in the morphology”.

And the “mean of the log-transformed distribution of E2 (delayed elastic constant) after treatment” value ([3]; NIH3T3 cells (n=30), 1 μM, before treatment 2.30, p=0.04)?
The value was 2.02.

What about the “mean of the log-transformed distribution of E1 (instantaneous elastic constant) after treatment” value ([3]; NIH3T3 cells (n=30), 1 μM, before treatment 3.19, p=0.10) of the same compound?
Its value is 2.92.

And the “mean of the log-transformed viscous constant η after treatment” value ([3]; NIH3T3 cells (n=30), 1 μM, before treatment 3.39, p=0.47)?
The value was 3.36.

What about the “matched individual cells with E1 lower after treatment” value [3, 6] of the same compound?
The value was 10/13.

What about the “matched individual cells with E2 lower after treatment” value [3, 6] of the same compound?
The value was 7/10.

And the “matched individual cells with viscosity η lower after treatment” value [3, 6]?
Its value is 6/11.

What about the “change in viscoelastic behavior, force-displacement curve of probe 1” value [3, 7] of the same compound?
Its value is “appears to be unchanged”.

What about the “change in viscoelastic behavior, force-displacement curve of probe 4” value [3, 7] of the same compound?
Its value is “change in elastic rebound behavior”.

What about the “change in viscoelastic behavior, force-displacement curves of probes 2 and 3” value [3, 7] of the same compound?
The value was “clear decrease in stiffness”.

And the “elasticity of treated cells” value ([3]; NIH3T3 cells, low dose (1 μM))?
The value was “treated cells were less elastic”.

What about the cell migration [4] of the same compound?
Its cell migration is “inhibit cell migration”.

What about the “change in cell morphology” value [5] of the same compound?
Its value is “only a slight change in cell morphology”.
